From patent US10934274B2, “Quinoline derivatives as TAM RTK inhibitors” (Qurient Co., Ltd., priority 2015, dated 2021)

Legend:
TYRO3 = target: T1, TYRO3 (Homo sapiens, UniProt Q06418); test: LanthaScreen Eu kinase binding assay, TYRO3; conditions: Tracer 236
T1 construct: purchased Life Technologies
T1 sequence (Q06418 41-890): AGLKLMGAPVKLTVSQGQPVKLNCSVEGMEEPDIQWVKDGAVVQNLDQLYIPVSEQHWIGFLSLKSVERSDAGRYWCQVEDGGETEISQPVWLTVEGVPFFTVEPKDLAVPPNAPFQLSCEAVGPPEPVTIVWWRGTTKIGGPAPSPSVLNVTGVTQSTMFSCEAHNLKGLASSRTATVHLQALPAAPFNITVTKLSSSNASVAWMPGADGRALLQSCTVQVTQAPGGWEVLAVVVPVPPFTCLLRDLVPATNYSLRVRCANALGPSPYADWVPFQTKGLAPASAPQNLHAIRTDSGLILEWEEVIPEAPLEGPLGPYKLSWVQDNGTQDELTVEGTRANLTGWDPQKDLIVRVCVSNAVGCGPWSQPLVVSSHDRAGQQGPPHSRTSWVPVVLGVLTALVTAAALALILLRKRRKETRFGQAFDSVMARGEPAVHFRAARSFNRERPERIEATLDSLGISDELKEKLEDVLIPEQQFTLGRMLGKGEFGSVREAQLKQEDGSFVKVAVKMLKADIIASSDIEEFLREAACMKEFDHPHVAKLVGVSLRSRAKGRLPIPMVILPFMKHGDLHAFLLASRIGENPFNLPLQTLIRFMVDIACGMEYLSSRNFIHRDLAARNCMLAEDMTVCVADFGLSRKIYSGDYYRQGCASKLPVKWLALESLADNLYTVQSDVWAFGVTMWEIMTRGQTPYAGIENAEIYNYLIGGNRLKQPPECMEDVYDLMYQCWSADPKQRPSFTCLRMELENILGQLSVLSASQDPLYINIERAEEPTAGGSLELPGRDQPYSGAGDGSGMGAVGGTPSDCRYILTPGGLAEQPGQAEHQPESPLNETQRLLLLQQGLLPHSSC

Axl = target: T2, Axl (Homo sapiens, UniProt P30530); test: LanthaScreen Eu kinase binding assay, Axl; conditions: Tracer 236
T2 construct: purchased Life Technologies
T2 sequence (P30530 26-894): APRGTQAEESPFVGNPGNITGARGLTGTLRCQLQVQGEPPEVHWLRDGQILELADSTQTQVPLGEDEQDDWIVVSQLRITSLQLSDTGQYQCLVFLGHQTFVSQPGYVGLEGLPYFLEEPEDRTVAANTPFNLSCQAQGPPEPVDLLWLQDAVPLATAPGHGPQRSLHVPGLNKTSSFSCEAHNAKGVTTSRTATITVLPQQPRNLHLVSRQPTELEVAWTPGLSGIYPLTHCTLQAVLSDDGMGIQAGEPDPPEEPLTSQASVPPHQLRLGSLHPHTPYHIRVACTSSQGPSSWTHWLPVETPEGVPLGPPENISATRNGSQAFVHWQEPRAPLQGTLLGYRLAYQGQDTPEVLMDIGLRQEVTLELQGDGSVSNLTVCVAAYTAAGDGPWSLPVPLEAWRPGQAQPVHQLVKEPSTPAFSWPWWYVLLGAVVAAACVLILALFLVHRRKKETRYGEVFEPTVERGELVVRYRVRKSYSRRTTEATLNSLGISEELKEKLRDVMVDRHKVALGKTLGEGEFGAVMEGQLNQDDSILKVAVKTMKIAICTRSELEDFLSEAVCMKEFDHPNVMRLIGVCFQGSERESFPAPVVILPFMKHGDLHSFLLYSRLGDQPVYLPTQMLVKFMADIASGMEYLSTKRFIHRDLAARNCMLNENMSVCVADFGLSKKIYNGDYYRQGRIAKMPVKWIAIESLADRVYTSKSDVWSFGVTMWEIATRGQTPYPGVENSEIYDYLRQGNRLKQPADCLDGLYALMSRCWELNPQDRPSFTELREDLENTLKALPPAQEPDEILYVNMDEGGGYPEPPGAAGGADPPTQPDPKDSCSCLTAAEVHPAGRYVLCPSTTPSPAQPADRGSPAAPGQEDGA

Row | Kd (TYRO3) | Kd (Axl) | SMILES
1 | < 0.1 µM | < 0.1 µM | CCOc1cn(-c2nccnc2Cl)nc1C(=O)Nc1ccc(Oc2ccnc3cc(OC)c(OC)cc23)cc1F [Compound 190]
2 | < 0.1 µM | < 0.1 µM | CCOc1cn(-c2c(C)ccnc2C)nc1C(=O)Nc1ccc(Oc2ccnc3cc(OC)c(OC)cc23)cc1F [Compound 191]
3 | 0.1 to 1 µM | < 0.1 µM | CCOc1cn(-c2ccc(OC(F)(F)F)cc2Cl)nc1C(=O)Nc1ccc(Oc2ccnc3cc(OC)c(OC)cc23)cc1F [Compound 192]
4 | < 0.1 µM | < 0.1 µM | CCOc1cn(-c2cnccc2Cl)nc1C(=O)Nc1ccc(Oc2ccnc3cc(OC)c(OC)cc23)c(F)c1 [Compound 193]
5 | < 0.1 µM | < 0.1 µM | CCOc1cn(-c2cnccc2Cl)nc1C(=O)Nc1ccc(Oc2ccnc3cc(OC)c(OC)cc23)cc1F [Compound 194]
6 | < 0.1 µM | < 0.1 µM | CCOc1cn(-c2cnccc2C(C)(C)O)nc1C(=O)Nc1ccc(Oc2ccnc3cc(OC)c(OC)cc23)c(F)c1 [Compound 195]
7 | < 0.1 µM | < 0.1 µM | CCOc1cn(-c2cnccc2C(F)(F)F)nc1C(=O)Nc1ccc(Oc2ccnc3cc(OC)c(OC)cc23)cc1F [Compound 196]
8 | < 0.1 µM | < 0.1 µM | CCOc1cn(-c2cnccc2C(C)(C)O)nc1C(=O)Nc1ccc(Oc2ccnc3cc(OC)c(OC)cc23)cc1F [Compound 197]
9 | < 0.1 µM | < 0.1 µM | CCOc1cn(-c2cnccc2C(F)(F)F)nc1C(=O)Nc1ccc(Oc2ccnc3cc(OC)c(OC)cc23)c(F)c1 [Compound 198]
10 | ≥ 1 µM | < 0.1 µM | CCOc1cn(-c2cccnc2)nc1C(=O)Nc1ccc(Oc2ccnc3cc(OC)c(OC(F)(F)F)cc23)cn1 [Compound 199]
11 | < 0.1 µM | < 0.1 µM | CCOc1cn(-c2nccnc2C(C)(C)O)nc1C(=O)Nc1ccc(Oc2ccnc3cc(OC)c(OC)cc23)cn1 [Compound 200]
12 | ≥ 1 µM | ≥ 1 µM | CCOc1cn(-c2ccc(OC(F)(F)F)cc2Cl)nc1C(=O)Nc1ccc(Oc2ccnc3cc(OC)c(OC(F)(F)F)cc23)cn1 [Compound 201]
13 | < 0.1 µM | < 0.1 µM | COc1cc2nccc(Oc3ccc(NC(=O)c4nn(-c5ccc(F)cc5C)cc4OCC(F)(F)F)nc3)c2cc1OC [Compound 203]
14 | < 0.1 µM | < 0.1 µM | CCOc1cn(-c2cnccc2C(C)(O)CO)nc1C(=O)Nc1ccc(Oc2ccnc3cc(OC)c(OC)cc23)cn1 (stereo not drawn) [Compound 205]
15 | ≥ 1 µM | < 0.1 µM | CCOc1cn(-c2cccnc2)nc1C(=O)Nc1ccc(Oc2ccnc3cc(OC(C)CC)c(OC)cc23)cn1 (stereo not drawn) [Compound 206]
16 | < 0.1 µM | < 0.1 µM | CCOc1cn(-c2cnccc2CO)nc1C(=O)Nc1ccc(Oc2ccnc3cc(OC)c(OC)cc23)c(F)c1 [Compound 207]
17 | 0.1 to 1 µM | < 0.1 µM | CCOc1cn(-c2cccnc2)nc1C(=O)Nc1ccc(Oc2ccnc3cc(OC(C)C)c(OC)cc23)cn1 [Compound 208]
18 | < 0.1 µM | < 0.1 µM | CCOc1cn(-c2cnccc2CO)nc1C(=O)Nc1ccc(Oc2ccnc3cc(OC)c(OC)cc23)cc1F [Compound 209]
19 | 0.1 to 1 µM | < 0.1 µM | CCOc1cn(-c2cnccc2C)nc1C(=O)Nc1ccc(Oc2ccnc3cc(OC)c(OC)cc23)nn1 [Compound 210]
20 | 0.1 to 1 µM | 0.1 to 1 µM | CCOc1cn(C2CCCN(C)C2)nc1C(=O)Nc1ccc(Oc2ccnc3cc(OC)c(OC)cc23)cc1F (stereo not drawn) [Compound 211]

The next lines start with the molecule.

Row | SMILES | Kd (TYRO3) | Kd (Axl)
21 | CCOc1cn(-c2nccnc2C(F)(F)F)nc1C(=O)Nc1ccc(Oc2ccnc3cc(OC)c(OC)cc23)cn1 [Compound 162] | 0.1 to 1 µM | < 0.1 µM
22 | CCOc1cn(-c2ncn(C)n2)nc1C(=O)Nc1ccc(Oc2ccnc3cc(OC)c(OC)cc23)cn1 [Compound 165] | 0.1 to 1 µM | < 0.1 µM
23 | CCOc1cn(-c2cncnc2C2CC2)nc1C(=O)Nc1ccc(Oc2ccnc3cc(OC)c(OC)cc23)cn1 [Compound 167] | < 0.1 µM | < 0.1 µM
24 | CCOc1cn(-c2nc[nH]n2)nc1C(=O)Nc1ccc(Oc2ccnc3cc(OC)c(OC)cc23)cn1 [Compound 168] | < 0.1 µM | < 0.1 µM
25 | CCOc1cn(-c2cnc(Cl)cn2)nc1C(=O)Nc1ccc(Oc2ccnc3cc(OC)c(OC)cc23)cn1 [Compound 169] | ≥ 1 µM | < 0.1 µM
26 | CCOc1cn(-c2cnccc2C(F)(F)F)nc1C(=O)Nc1ccc(Oc2ccnc3cc(OC)c(OC)cc23)cn1 [Compound 170] | < 0.1 µM | < 0.1 µM
27 | CCOc1cn(-c2nccnc2Cl)nc1C(=O)Nc1ccc(Oc2ccnc3cc(OC)c(OC)cc23)cn1 [Compound 177] | < 0.1 µM | < 0.1 µM
28 | CCOc1cn(-c2cnccc2CO)nc1C(=O)Nc1ccc(Oc2ccnc3cc(OC)c(OC)cc23)cn1 [Compound 179] | < 0.1 µM | < 0.1 µM
29 | CCOc1cn(-c2cnccc2CCO)nc1C(=O)Nc1ccc(Oc2ccnc3cc(OC)c(OC)cc23)cn1 [Compound 181] | < 0.1 µM | < 0.1 µM
30 | CCOc1cn(-c2cnccc2C(C)=O)nc1C(=O)Nc1ccc(Oc2ccnc3cc(OC)c(OC)cc23)cn1 [Compound 182] | < 0.1 µM | < 0.1 µM
31 | CCOc1cn(-c2cnccc2Cl)nc1C(=O)Nc1ccc(Oc2ccnc3cc(OC)c(OC)cc23)cn1 [Compound 183] | < 0.1 µM | < 0.1 µM
32 | CCOc1cn(-c2cnccc2C(C)(C)O)nc1C(=O)Nc1ccc(Oc2ccnc3cc(OC)c(OC)cc23)cn1 [Compound 184] | < 0.1 µM | < 0.1 µM
33 | COc1cc2nccc(Oc3ccc(NC(=O)c4nn(-c5cccnc5)cc4OCC(F)(F)F)nc3)c2cc1OC [Compound 185] | < 0.1 µM | < 0.1 µM
34 | COc1cc2nccc(Oc3ccc(NC(=O)c4nn(-c5ccc(OC(F)(F)F)cc5Cl)cc4OCC(F)(F)F)nc3)c2cc1OC [Compound 186] | 0.1 to 1 µM | 0.1 to 1 µM
35 | CCOc1cn(-c2c(C)ccnc2C)nc1C(=O)Nc1ccc(Oc2ccnc3cc(OC)c(OC)cc23)c(F)c1 [Compound 188] | < 0.1 µM | < 0.1 µM
36 | CCOc1cn(-c2ccc(OC(F)(F)F)cc2Cl)nc1C(=O)Nc1ccc(Oc2ccnc3cc(OC)c(OC)cc23)c(F)c1 [Compound 189] | < 0.1 µM | < 0.1 µM
